{
  "source": "patent US8552048B2",
  "about": "“Phosphoramidate alkylator prodrugs for the treatment of cancer” (Threshold Pharmaceuticals, Inc., priority 2006, dated 2013)",
  "key": {"[1]": {"tested_on": "IGROV1 human ovarian cancer cells", "assay": "IGROV1 ovarian cancer xenograft", "assay_type": "in vivo", "details": "75 mg/kg i.v. Q7D×2", "method": "Forty nude mice were subcutaneously implanted with IGROV1 human ovarian cancer cells (5×10^6 cells/mouse). The tumor volumes were measured twice weekly starting on day 7. On day 8, tumor volumes reached about 97.7±3.9 mm^3. The mice were randomized in 3 treatment groups that were administered the following: CDDP (4 mg/kg, ip, Q7D×2), CDDP (6 mg/kg, i.p. Q7D×2), and TH302 (75 mg/kg, i.v., Q7D×2). A control group of mice were administered saline. […] Forty five days after the first administration of TH302, tumor growth inhibition was 66%. The tumor growth delay (to 300 mm^3) was 19 days."}, "[2]": {"assay": "Pharmacokinetics in Sprague-Dawley rats (single dose i.v. and p.o.)", "assay_type": "in vivo, male Sprague-Dawley rats", "details": "male, Sprague-Dawley, rat, rats; for clearance: read-out: CL (converted); for Vd: read-out: Vss; for AUC(0-t): read-out: AUC(0-t); for Cmax: read-out: Cmax; for MRT: read-out: MRT", "method": "Pharmacokinetic studies were performed in male CD-1 (50 mg/kg i.p. or orally (p.o.)) or female nude mice (50 mg/kg i.v. or i.p.), male Sprague-Dawley rats (1, 5, 20 and 50 mg/kg i.v. and 100 mg/kg, p.o.), beagle dogs (20 mg/kg, i.v.) and cynomologus monkeys (20 mg/kg i.v.). Plasma TH302 concentrations were analyzed using a LC/MS method and the pharmacokinetic parameters computed using a noncompartmental method. Interspecies scaling was performed according to standard methods.\nTH302 was dissolved in 50% PEG400/Saline to obtain a final concentration of 25 mg/mL, and then was further diluted to yield 25, 10, 2.5 and 0.5 mg/mL formulations of TH302 (pH The formulations were prepared just before dosing. The concentration of TH302 in dosing solution was confirmed by HPLC-UV. Male Sprague Dawley rats (body weight: 200 g to 230 g) were used in this study. Before the pharmacokinetic studies, animals were randomly assigned to four treatment groups cannulated in the carotid artery for serial blood sampling. All rats were administered a single intravenous bolus dose over one minute via the tail vein. The concentrations of TH302 in plasma were determined using a high performance liquid chromatography/mass spectrometry (HPLC/MS/MS) method. […]"}, "[3]": {"details": "in vivo, iv, 1 mg/kg, 1 mg/kg i.v. bolus, MEAN"}, "[4]": {"details": "in vivo, iv, 5 mg/kg, 5 mg/kg i.v. bolus, MEAN"}, "[5]": {"details": "in vivo, iv, 20 mg/kg, 20 mg/kg i.v. bolus, MEAN"}, "[6]": {"details": "in vivo, iv, 20 mg/kg, 20 mg/kg i.v. bolus, individual animals"}, "[7]": {"details": "in vivo, iv, 50 mg/kg, 50 mg/kg i.v. bolus, MEAN"}, "[8]": {"details": "plasma, iv, 1 mg/kg, 1 mg/kg i.v. bolus, MEAN"}, "[9]": {"details": "plasma, iv, 1 mg/kg, 1 mg/kg i.v. bolus, individual animals"}, "[10]": {"details": "plasma, iv, 5 mg/kg, 5 mg/kg i.v. bolus, MEAN"}, "[11]": {"details": "plasma, iv, 5 mg/kg, 5 mg/kg i.v. bolus, individual animals"}, "[12]": {"details": "plasma, iv, 20 mg/kg, 20 mg/kg i.v. bolus, MEAN"}, "[13]": {"details": "plasma, iv, 20 mg/kg, 20 mg/kg i.v. bolus, individual animals"}, "[14]": {"details": "plasma, iv, 50 mg/kg, 50 mg/kg i.v. bolus, MEAN"}, "[15]": {"details": "plasma, iv, 50 mg/kg, 50 mg/kg i.v. bolus, individual animals"}},
  "note": "Like-named read-outs stand apart in the source and are kept apart here.",
  "data": [
    {"molecule": "Cn1c(COP(=O)(NCCBr)NCCBr)cnc1[N+](=O)[O-]", "note": "[TH302]", "values": [
      {"measurement": "body weight during the treatment period", "setting": "[1]", "value": "body weight gain"},
      {"measurement": "tumor growth delay (to 300 mm^3)", "setting": "[1]", "value": 19, "unit": "days"},
      {"measurement": "growth inhibition (significance)", "setting": "[1]; P<0.05", "value": "significant growth inhibition"},
      {"measurement": "tumor growth inhibition", "setting": "[1]; forty five days after the first administration", "value": 66, "unit": "%"},
      {"measurement": "clearance", "setting": "[2]; [3]", "value": 78.2, "unit": "mL/min/kg"},
      {"measurement": "Vd", "setting": "[2]; [3]", "value": 2.05, "unit": "L/kg"},
      {"measurement": "clearance", "setting": "[2]; [4]", "value": 102, "unit": "mL/min/kg"},
      {"measurement": "Vd", "setting": "[2]; [4]", "value": 5.09, "unit": "L/kg"},
      {"measurement": "Vd", "setting": "[2]; in vivo, iv, 5 mg/kg, 5 mg/kg i.v. bolus, individual animals", "value": 2.51, "unit": "L/kg"},
      {"measurement": "clearance", "setting": "[2]; [5]", "value": 102, "unit": "mL/min/kg"},
      {"measurement": "Vd", "setting": "[2]; [5]", "value": 2.29, "unit": "L/kg"},
      {"measurement": "clearance", "setting": "[2]; [6]", "value": 98.5, "unit": "mL/min/kg"},
      {"measurement": "Vd", "setting": "[2]; [6]", "value": 2.29, "unit": "L/kg"},
      {"measurement": "clearance", "setting": "[2]; [7]", "value": 98.5, "unit": "mL/min/kg"},
      {"measurement": "Vd", "setting": "[2]; [7]", "value": 1.67, "unit": "L/kg"},
      {"measurement": "half-life", "setting": "[2]; in vivo, iv, 1 mg/kg i.v. bolus, MEAN, read-out: T1/2 (converted)", "value": 2.03, "unit": "h"},
      {"measurement": "half-life", "setting": "[2]; in vivo, iv, 5 mg/kg i.v. bolus, MEAN, read-out: T1/2 (converted)", "value": 3.75, "unit": "h"},
      {"measurement": "half-life", "setting": "[2]; in vivo, iv, 20 mg/kg i.v. bolus, MEAN, read-out: T1/2 (converted)", "value": 4.37, "unit": "h"},
      {"measurement": "half-life", "setting": "[2]; in vivo, iv, 50 mg/kg i.v. bolus, MEAN, read-out: T1/2 (converted)", "value": 1.32, "unit": "h"},
      {"measurement": "bioavailability", "setting": "[2]; in vivo, po, 100 mg/kg p.o., read-out: absolute oral bioavailability", "value": 77.3, "unit": "%"},
      {"measurement": "half-life", "setting": "[2]; in vivo, po, after p.o. dosing 100 mg/kg, read-out: terminal plasma t1/2 (converted)", "value": 1.59, "unit": "h"},
      {"measurement": "AUC(0-inf)", "setting": "[2]; [8]", "value": 221, "unit": "ng·h/mL"},
      {"measurement": "AUC(0-t)", "setting": "[2]; [8]", "value": 217, "unit": "ng·h/mL"},
      {"measurement": "Cmax", "setting": "[2]; [8]", "value": 802, "unit": "ng/mL"},
      {"measurement": "MRT", "setting": "[2]; [8]", "value": 0.89, "unit": "h"},
      {"measurement": "AUC(0-inf)", "setting": "[2]; [9]", "value": 178, "unit": "ng·h/mL"},
      {"measurement": "AUC(0-t)", "setting": "[2]; [9]", "value": 175, "unit": "ng·h/mL"},
      {"measurement": "clearance", "setting": "[2]; [9]", "value": 93.3, "unit": "mL/min/kg"},
      {"measurement": "Cmax", "setting": "[2]; [9]", "value": 683, "unit": "ng/mL"},
      {"measurement": "MRT", "setting": "[2]; [9]", "value": 0.95, "unit": "h"},
      {"measurement": "half-life", "setting": "[2]; plasma, iv, 1 mg/kg, 1 mg/kg i.v. bolus, individual animals, read-out: T1/2 (converted)", "value": 1.75, "unit": "h"},
      {"measurement": "Vd", "setting": "[2]; [9]", "value": 1.83, "unit": "L/kg"},
      {"measurement": "AUC(0-inf)", "setting": "[2]; [10]", "value": 826, "unit": "ng·h/mL"},
      {"measurement": "AUC(0-t)", "setting": "[2]; [10]", "value": 799, "unit": "ng·h/mL"},
      {"measurement": "Cmax", "setting": "[2]; [10]", "value": 3820, "unit": "ng/mL"},
      {"measurement": "MRT", "setting": "[2]; [10]", "value": 0.9, "unit": "h"},
      {"measurement": "AUC(0-inf)", "setting": "[2]; [11]", "value": 732, "unit": "ng·h/mL"},
      {"measurement": "AUC(0-t)", "setting": "[2]; [11]", "value": 730, "unit": "ng·h/mL"},
      {"measurement": "clearance", "setting": "[2]; [11]", "value": 114, "unit": "mL/min/kg"},
      {"measurement": "Cmax", "setting": "[2]; [11]", "value": 3840, "unit": "ng/mL"},
      {"measurement": "Vd", "setting": "[2]; [11]", "value": 7.68, "unit": "L/kg"},
      {"measurement": "AUC(0-inf)", "setting": "[2]; [12]", "value": 3310, "unit": "ng·h/mL"},
      {"measurement": "AUC(0-t)", "setting": "[2]; [12]", "value": 3270, "unit": "ng·h/mL"},
      {"measurement": "Cmax", "setting": "[2]; [12]", "value": 13500, "unit": "ng/mL"},
      {"measurement": "MRT", "setting": "[2]; [12]", "value": 0.59, "unit": "h"},
      {"measurement": "AUC(0-inf)", "setting": "[2]; [13]", "value": 2920, "unit": "ng·h/mL"},
      {"measurement": "AUC(0-t)", "setting": "[2]; [13]", "value": 2830, "unit": "ng·h/mL"},
      {"measurement": "clearance", "setting": "[2]; [13]", "value": 114, "unit": "mL/min/kg"},
      {"measurement": "Cmax", "setting": "[2]; [13]", "value": 13400, "unit": "ng/mL"},
      {"measurement": "Vd", "setting": "[2]; [13]", "value": 2.89, "unit": "L/kg"},
      {"measurement": "AUC(0-inf)", "setting": "[2]; [14]", "value": 8470, "unit": "ng·h/mL"},
      {"measurement": "AUC(0-t)", "setting": "[2]; [14]", "value": 8460, "unit": "ng·h/mL"},
      {"measurement": "Cmax", "setting": "[2]; [14]", "value": 35500, "unit": "ng/mL"},
      {"measurement": "MRT", "setting": "[2]; [14]", "value": 0.29, "unit": "h"},
      {"measurement": "AUC(0-inf)", "setting": "[2]; [15]", "value": 8830, "unit": "ng·h/mL"},
      {"measurement": "AUC(0-t)", "setting": "[2]; [15]", "value": 8830, "unit": "ng·h/mL"},
      {"measurement": "clearance", "setting": "[2]; [15]", "value": 94.3, "unit": "mL/min/kg"},
      {"measurement": "Cmax", "setting": "[2]; [15]", "value": 37200, "unit": "ng/mL"}
    ]}
  ]
}
